Measurements published in article PMC6730544 (ACS infectious diseases, 2019).

Legend:
Type in all cases: biochemical
[1] = molecular target: T1, LpxH (UDP-2,3-diacylglucosamine pyrophosphatase) (Escherichia coli, UniProt P43341); assay: AaLpxE-coupled malachite green assay, residual activity at […]
[2] = molecular target: T1, LpxH (UDP-2,3-diacylglucosamine pyrophosphatase); assay: as above; remark: listed apart in the source
[3] = molecular target: T1, LpxH (UDP-2,3-diacylglucosamine pyrophosphatase); assay: AaLpxE-coupled malachite green assay, dose-response

T1 sequence (P43341 whole entry): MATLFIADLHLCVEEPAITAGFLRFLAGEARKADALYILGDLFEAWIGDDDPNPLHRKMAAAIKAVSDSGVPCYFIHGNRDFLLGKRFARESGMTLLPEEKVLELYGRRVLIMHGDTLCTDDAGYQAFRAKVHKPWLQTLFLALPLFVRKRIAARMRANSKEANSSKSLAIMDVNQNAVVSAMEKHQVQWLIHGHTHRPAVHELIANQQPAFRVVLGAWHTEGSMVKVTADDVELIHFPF

Structure (SMILES): CC(=O)N1CCc2cc(S(=O)(=O)N3CCN(c4cccc(Br)c4)CC3)ccc21 [3a, JH-LPH-06]
- activity at 1 µM ([1]; read-out: 1 μM compound / Percentage Activity): 26 ± 8%

Structure (SMILES): CC(=O)N1CCc2cc(S(=O)(=O)N3CCN(c4ccccc4)CC3)ccc21 [3b, JH-LPH-09]
- 10 μM compound / Percentage Activity [2]: 32 ± 9

Structure (SMILES): CCc1cccc(N2CCN(S(=O)(=O)c3ccc4c(c3)CCN4C(C)=O)CC2)c1 [3c, JH-LPH-24]
- 10 μM compound / Percentage Activity [2]: 21 ± 2

Structure (SMILES): CC(=O)N1CCc2cc(S(=O)(=O)N3CCN(c4cccc(C(C)C)c4)CC3)ccc21 [3d, JH-LPH-26]
- 10 μM compound / Percentage Activity [2]: 29 ± 3

Structure (SMILES): CC(=O)N1CCc2cc(S(=O)(=O)N3CCN(c4cccc(-c5ccccc5)c4)CC3)ccc21 [3e, JH-LPH-25]
- 1 μM compound / Percentage Activity [1]: 45 ± 10

Structure (SMILES): COC(=O)CCC(=O)N1CCc2cc(S(=O)(=O)N3CCN(c4cccc(Br)c4)CC3)ccc21 [22a, JH-LPH-07]
- 1 μM compound / Percentage Activity [1]: 53 ± 11

Structure (SMILES): O=C(O)CCC(=O)N1CCc2cc(S(=O)(=O)N3CCN(c4cccc(Br)c4)CC3)ccc21 [22b, JH-LPH-08]
- 1 μM compound / Percentage Activity [1]: 52 ± 11

Structure (SMILES): CC(=O)N1CCc2cc(S(=O)(=O)N3CCN(c4cccc(C(F)(F)F)c4)CC3)ccc21 [AZ1]
- IC50 [3]: 147 ± 2 nM

Structure (SMILES): CC(=O)Nc1ccc(S(=O)(=O)N2CCN(c3cccc(C(F)(F)F)c3)CC2)cc1 [compound 11, JH-LPH-15]
- activity at 10 µM ([2]; read-out: 10 μM compound / Percentage Activity): 30 ± 11%
